Assay results from patent US6617312B1, “Vasoactive amine binding molecules” (Oxford Vacs Ltd., priority 1996, dated 2003).

What was measured:
[1] = biological target: Rhipicephalus appendiculatus rMS-HBP1, His6-tagged, SEQ ID NO: 20 (Rhipicephalus appendiculatus, UniProt O77422); conditions: ^3H-histamine ~0.3 pmol (11,200 cpm), rMS-HBP1 ~100 pmol, 5 measurements
[2] = test system: rVABPs; experiment: Competition experiment: displacement of 3H-histamine from rVABPs by histamine-like compounds; conditions: cold histamine, reference amount
[3] = biological target: T1, Rhipicephalus appendiculatus rFS-HBP2, His6-tagged, expressed in Spodoptera frugiperda Sf21 cells (baculovirus), SEQ ID NO: 18 (Rhipicephalus appendiculatus, UniProt O77421); experiment: Histamine binding assay (radiolabelled histamine, PEG precipitation, Scatchard), rFS-HBP2
T1 construct: Ile-(His)6 (C); made in house; host or cells: Spodoptera frugiperda Sf21 cells (baculovirus BacPak6)
Experimental: (§1) Construction of clones. FS-HBP1, FS-HBP2 and MS-HBP1 were expressed as histidine-tagged proteins (rFS-HBP1, rFS-HBP2 and rMS-HBP1) in Spodoptera frugiperda ovarian cells (Sf21).
(§2) This plasmid pACC129.1-FS1.HIS was also used for expression of histidine-tagged FS-HBP2 and MS-HBP1. The FS-HBP1 cDNA was deleted using SacI and BamHI thus leaving the histidine codons intact. An upstream SacI and a downstream BglII site (BglII and BamHI create compatible overhangs) were added to the FS-HBP2 and MS-HBP1 coding regions by PCR. […] The forward primer, in the case of FS-HBP2 was: 5′-[…] (SEQ ID NO:5); the reverse primer was: 5′-[…] (SEQ ID NO:6). In the case of MS-HBP1 the forward primer was: 5′-[…] (SEQ ID NO:7), and the reverse primer was: 5′-[…] (SEQ ID NO:8).
(§3) Following PCR, the derived cDNAs were inserted into the vector. A Gln-Ile-(HIS)6 sequence was thus added to the carboxyterminus of the MS-HBP1 translation product, and Ile-(His)6 to the FS-HBP2 translation product.
(§4) The baculovirus expression system was used for expression of the three tagged polypeptides. Spodoptera (Sf21) cells were transfected with the transfer vectors and baculovirus (BacPak6; Clontech). Recombinant virus was amplified as according to Kitts and Possee (1993) BioTechniques 14:810-817). The VABPs are clearly secretion products since they are mainly found in the culture medium of transfected cells as well as in saliva. […]

[4] = biological target: Rhipicephalus appendiculatus FS-HBP2 (SEQ ID NO: 18) truncated version lacking the 28 C-terminal amino acids, bacterially expressed (Rhipicephalus appendiculatus, UniProt O77421)
[5] = biological target: Rhipicephalus appendiculatus FS-HBP2 (SEQ ID NO: 18) truncated version lacking the 45 N-terminal amino acids, bacterially expressed (Rhipicephalus appendiculatus, UniProt O77421)
[6] = biological target: T2, Rhipicephalus appendiculatus rFS-HBP1, His6-tagged, expressed in Spodoptera frugiperda Sf21 cells (baculovirus), SEQ ID NO: 16 (Rhipicephalus appendiculatus, UniProt O77420); experiment: Histamine binding assay (radiolabelled histamine, PEG precipitation, Scatchard), rFS-HBP1
T2 construct: Gly-Ile-(His)6 (C); made in house; host or cells: Spodoptera frugiperda Sf21 cells (baculovirus BacPak6)
Experimental: as §1
In order to append the His6 tag, the coding region of FS-HBP1 was first amplified using the polymerase chain reaction (PCR). […] The forward primer used was: 5′-[…] (SEQ ID NO:3); the reverse primer was: 5′-[…] (SEQ ID NO:4). The primers were designed so that a SacI site was added upstream of the start codon, whilst the stop codon was replaced by a BamHI site, followed by 6 histidine codons and an SpeI site comprising a TAG stop codon. The PCR product was cut with SacI and SpeI. The latter enzyme creates a compatible overhang with XbaI, enabling the fragment to be ligated between the SacI and XbaI sites of the pAcC129.1 transfer vector (Livingstone and Jones (1989) Nucleic Acids Res. 17:2366), generating the plasmid pACC129.1-FS1.HIS. This plasmid therefore contained the sequence Gly-Ile-(His)6 appended to the carboxy terminus of the FS-HBP1 translation product.
The baculovirus expression system was used for expression of the three tagged polypeptides. Spodoptera (Sf21) cells were transfected with the transfer vectors and baculovirus (BacPak6; Clontech). Recombinant virus was amplified as according to Kitts and Possee (1993) BioTechniques 14:810-817). […]

[7] = biological target: T3, Rhipicephalus appendiculatus rMS-HBP1, His6-tagged, expressed in Spodoptera frugiperda Sf21 cells (baculovirus), SEQ ID NO: 20 (Rhipicephalus appendiculatus, UniProt O77422); experiment: Histamine binding assay (radiolabelled histamine, PEG precipitation, Scatchard), rMS-HBP1
T3 construct: Gln-Ile-(His)6 (C); made in house; host or cells: Spodoptera frugiperda Sf21 cells (baculovirus BacPak6)
Experimental: as §1, §2, §3, §4

Sequence of Rhipicephalus appendiculatus rMS-HBP1, His6-tagged, SEQ ID NO: 20 (O77422 19-200): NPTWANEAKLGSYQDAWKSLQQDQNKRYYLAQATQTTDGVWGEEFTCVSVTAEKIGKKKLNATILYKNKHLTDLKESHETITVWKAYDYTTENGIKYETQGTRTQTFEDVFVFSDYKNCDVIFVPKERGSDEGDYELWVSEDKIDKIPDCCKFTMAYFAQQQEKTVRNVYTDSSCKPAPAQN
T3 sequence (O77422 19-200, added parts left off): as the sequence (O77422 19-200) above
Sequence of Rhipicephalus appendiculatus FS-HBP2 (SEQ ID NO: 18) truncated version lacking the 45 N-terminal amino acids, bacterially expressed (O77421 65-190): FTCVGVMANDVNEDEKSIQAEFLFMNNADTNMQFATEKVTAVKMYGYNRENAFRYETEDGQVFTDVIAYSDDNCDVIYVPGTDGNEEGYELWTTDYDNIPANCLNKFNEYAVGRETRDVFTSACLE
Sequence of Rhipicephalus appendiculatus FS-HBP2 (SEQ ID NO: 18) truncated version lacking the 28 C-terminal amino acids, bacterially expressed (O77421 20-162): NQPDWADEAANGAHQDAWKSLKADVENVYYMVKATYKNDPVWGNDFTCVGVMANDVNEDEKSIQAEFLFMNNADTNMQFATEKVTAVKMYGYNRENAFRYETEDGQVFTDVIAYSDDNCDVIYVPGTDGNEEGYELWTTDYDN
T1 sequence (O77421 20-190, added parts left off): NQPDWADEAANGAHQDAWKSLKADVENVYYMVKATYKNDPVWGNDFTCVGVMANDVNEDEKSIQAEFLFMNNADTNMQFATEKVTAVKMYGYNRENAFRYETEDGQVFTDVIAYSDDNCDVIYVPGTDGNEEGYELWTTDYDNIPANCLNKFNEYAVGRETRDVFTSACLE
T2 sequence (O77420 19-190, added parts left off): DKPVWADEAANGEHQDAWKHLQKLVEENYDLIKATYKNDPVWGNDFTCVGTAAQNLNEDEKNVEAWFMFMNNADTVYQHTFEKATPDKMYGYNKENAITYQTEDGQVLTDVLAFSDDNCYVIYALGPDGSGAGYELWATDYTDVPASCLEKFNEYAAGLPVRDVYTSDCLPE

| SMILES | bound radioligand, without added histamine [1] | displacement of ^3H-histamine from the binding sites [2] | bound radioligand, supplemented with histamine ([1]; plus histamine 0.5 pmol) | Kd [3] | binding to histamine [4] | binding to histamine [5] | Kd [6] | Kd [7] |
| --- | --- | --- | --- | --- | --- | --- | --- | --- |
| NCCc1c[nH]cn1 [^3H-histamine] | 6,840±150 cpm | – | – | – | – | – | – | – |
| NCCc1c[nH]cn1 [histamine] | – | more than 95% | 7,560±110 cpm | 1.7 nM | do not bind to histamine at all | do not bind to histamine at all | 78 nM | 1.2 nM |
